Results on four compounds are retold here after patent publication EP4516309A1, “CRHR1 AGONISTS FOR USE IN THE TREATMENT OF SOCIAL ANXIETY DISORDERS” (Consejo Superior de Investigaciones Cientificas, priority 2023, dated 2025).

Assay [1] has as its system GABAA and GABAB receptors. Nature of the assay: Light-induced IPSCs in rdLS neurons after stimulation of CRH+ fibers from ILA expressing Channelrhodopsin. The assay is classed as cell-based, mice. The conditions noted are these: 2µM SR 95531 and 1µM CGP 55845 applied together; neurons held at +10 mV.
Experimental: The inventors prepared coronal brain slices from 8- to 12-week-old C57BL6/J mice. […] Brains were cut into 400 µm slices with a vibratome (VT1200S, Leica) in the same ice-cold dissection solution. Slices were then transferred to an incubation chamber containing the same ACSF solution. The chamber was kept at 34°C for 30 min and then at room temperature for at least 1 h before recording. All experiments were performed at room temperature. Slices were mounted in the recording chamber under a microscope. Recordings were acquired using the Multiclamp 700A amplifier (Molecular Device), data acquisition interface ITC-18 (Instrutech) and the Axograph software. The inventors targeted CA2 PNs based somatic location and size in both deep and superficial layer. […] The liquid junction potential was 1.2 mV and was left uncorrected. Inhibitory currents were recorded in voltage-clamp configuration at +10 mV. […] LS neurons from WT mice were also recorded. […] The inventors used the Axograph software for data acquisition, and Excel (Microsoft) and PRISM (Graphpad) for data analysis.
Assay [2] concerns the target T1, CRHR1 (Mus musculus, UniProt P35347).
T1 sequence (P35347 24-415): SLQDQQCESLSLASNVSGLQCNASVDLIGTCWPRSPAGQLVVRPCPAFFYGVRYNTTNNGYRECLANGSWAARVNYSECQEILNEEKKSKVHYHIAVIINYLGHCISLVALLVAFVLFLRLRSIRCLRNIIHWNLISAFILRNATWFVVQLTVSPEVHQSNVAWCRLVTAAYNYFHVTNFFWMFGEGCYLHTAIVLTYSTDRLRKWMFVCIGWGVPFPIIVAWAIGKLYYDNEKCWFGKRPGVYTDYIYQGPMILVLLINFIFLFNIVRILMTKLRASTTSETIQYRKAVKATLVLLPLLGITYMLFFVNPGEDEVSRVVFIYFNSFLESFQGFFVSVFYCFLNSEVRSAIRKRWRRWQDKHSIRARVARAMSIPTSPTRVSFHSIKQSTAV
Nature of the assay: Inhibitory events in rdLS neurons before and after tetanic light stimulation of ILA CRH fibers, with or without antagonist. In kind it is cell-based, mice. The conditions noted are these: 300 nM antalarmin in the bath.
Text: The inventors prepared coronal brain slices from 8- to 12-week-old C57BL6/J mice. Animals were killed under isoflurane anesthesia by perfusion into the right ventricle of ice-cold solution containing the following (in mM): 125 NaCl, 2.5 KCI, 22.5 glucose, 25 NaHCOs, 1.25 NaH2PO4, 3 Na Pyruvate, 1 Ascorbic acid, 2 CaCl2 and 1 MgCl2). ACSF was saturated with 95% O2 and 5% CO2, pH 7.4. Brains were cut into 400 µm slices with a vibratome (VT1200S, Leica) in the same ice-cold dissection solution. Slices were then transferred to an incubation chamber containing the same ACSF solution. The chamber was kept at 34°C for 30 min and then at room temperature for at least 1 h before recording. All experiments were performed at room temperature. Slices were mounted in the recording chamber under a microscope. Recordings were acquired using the Multiclamp 700A amplifier (Molecular Device), data acquisition interface ITC-18 (Instrutech) and the Axograph software. […] Inhibitory currents were recorded in voltage-clamp configuration at +10 mV. […] LS neurons from WT mice were also recorded. […]
The inventors expressed channel rhodopsin in ILA^CRH neurons and prepared rdLS slices (Fig. 15F). The inventors obtained whole-cell recordings of rdLS neurons and recorded spontaneous inhibitory events (sIPSC) before and after applying a tetanic light stimulation. […]

For assay [3], the system named is CRHR1. Nature of the assay: Social novelty preference test after cannula infusion in rdLS. Conditions: 2 µg of antalarmin in 0.6 µL of DMSO infused in rdLS. In kind it is in vivo, C57BL/6J wild-type mice.
Text: The mouse scalp was removed and scored before a hole was drilled (AP +0.9, ML ±0). A cannula guide extending 2.4 mm below the pedestal (Plastics One #C315G 2-G11-SPC) was lowered slowly and kept in place using superglue. The skull was then covered with dental cement (GC FujiCEM 2) and dummy cannulas (Plastics One #C315DC-SPC) were inserted into the guides. The mice were returned to their home cages and left to recover for at least 1 week. For rdLS infusion, mice were placed under light isoflurane anesthesia (2%) and the dummy cannula was removed. A cannula (Plastics One #C315I-SPC) projecting 2.5 mm from the tip of the cannula guide was mounted. […]
Social novelty preference test. […] Using automatic tracking of the test mice (ANY-Maze, Stoelting), the inventors quantified the time the test mice spent in the immediate area surrounding each cup - and therefore, interacting with each stimulus mice - during learning and recall. Using the interaction time from the recall trial, the inventors calculated a discrimination index for social novelty preference as the following: D! = (time with novel - time with familiar) / total interaction time. […] The inventors also calculated the total time spent interacting with stimulus mice during each trial in order to verify that the sociability drive was not affected. […]
Assay [4] deals with CRHR1. Nature of the assay: Whole-cell patch-clamp recordings from rdLS CRHR1 neurons in acute LS slices. In kind it is cell-based. Conditions: 300 nM stressin-1, bath application; CRHR1-Cre;Ai9 mice; neurons clamped at -60 mV.
Assay [5] concerns CRHR1. Nature of the assay: Spontaneous IPSC recording from LS cells in acute slices before and after agonist application. The assay is classed as cell-based, mice. Conditions: 300 nM. The text has this:
The inventors prepared coronal brain slices from 8- to 12-week-old C57BL6/J mice. Animals were killed under isoflurane anesthesia by perfusion into the right ventricle of ice-cold solution containing the following (in mM): 125 NaCl, 2.5 KCI, 22.5 glucose, 25 NaHCOs, 1.25 NaH2PO4, 3 Na Pyruvate, 1 Ascorbic acid, 2 CaCl2 and 1 MgCl2). ACSF was saturated with 95% O2 and 5% CO2, pH 7.4. Brains were cut into 400 µm slices with a vibratome (VT1200S, Leica) in the same ice-cold dissection solution. Slices were then transferred to an incubation chamber containing the same ACSF solution. The chamber was kept at 34°C for 30 min and then at room temperature for at least 1 h before recording. All experiments were performed at room temperature. Slices were mounted in the recording chamber under a microscope. Recordings were acquired using the Multiclamp 700A amplifier (Molecular Device), data acquisition interface ITC-18 (Instrutech) and the Axograph software. […] Whole-cell recordings were obtained from LS neurons in voltage-clamp mode at -70 mV patch pipette (3-5 MΩ) containing the following (in mM): 135 Cs-gluconate, 5 KCI, 0.2 EGTA-Na, 10 HEPES, 2 NaCl, 5 ATP, 0.4 GTP, 10 phosphocreatine, and 5 µM biocytin, pH 7.2 (280-290 mOsm). The liquid junction potential was 1.2 mV and was left uncorrected. Inhibitory currents were recorded in voltage-clamp configuration at +10 mV. The inventors recorded rdLS neurons in septal slices from CRH-Cre mice expressing channelrhodopsin and applied 2 µM SR 95531 (Tocris, # 1262) and 1 µM CGP 55845 (Tocris, #1248) to block GABAA and GABAB receptors, respectively while monitoring the light induced IPSCs in rdLS neurons. The inventors also applied a tetanic light stimulation (3 times 100 pulses of 1 ms at 100 Hz) with or without 300 nM antalarmin (Tocris, #2778) present in the bath. LS neurons from WT mice were also recorded. After 10 min of stable baseline recording, stressin-1 (300 nM, Tocris # 1608) was applied following a 1:1000 dilution from stock solution into the ACSF. The inventors used the Axograph software for data acquisition, and Excel (Microsoft) and PRISM (Graphpad) for data analysis.
The inventors prepared acute LS slices from WT mice and recorded spontaneous inhibitory post-synaptic currents (IPSCs) from rdLS cells in whole-cell configuration before applying the CRHR1 agonist stressin-1 (300 nM, Fig. 15A-B). Stressin-1 application for 15 min decreased the frequency and integrated charge of spontaneous IPSCs (Fig. 15B-C and E). […] This effect was not seen when rLS neurons were recorded for 15 min without application of the agonist (Fig. 16 A1-A5).

Setting [6] is: application for 15 min, rdLS cells, WT mice.

As for `C[C@H](NC[C@H](O)CP(=O)(O)Cc1ccccc1)c1ccc(Cl)c(Cl)c1` [CGP 55845], the “light-induced IPSCs” value in assay [1] was “abolished”.
`COc1ccc(-c2ccc(=N)n(CCCC(=O)O)n2)cc1` [SR 95531]: in assay [1], the “light-induced IPSCs” value was “abolished”.
Consider `CCCCN(CC)c1nc(C)nc2c1c(C)c(C)n2-c1c(C)cc(C)cc1C` [antalarmin], for which the “decrease in inhibition (sIPSC frequency, amplitude, charge; elicited IPSC) following light stimulation” value at CRHR1 [2] was “blocked the disinhibition”. For the same compound, the “preference for the novel mouse” value in the assay on CRHR1 [3] (recall trial) was “showed no novelty preference”. In the assay on CRHR1 [3] (vs. DMSO), the “Total exploration time during learning or recall” value is given as “not different between groups”.
Take stressin-1: in the assay with CRHR1 [4], the “current in rdLSCRHR1 neurons” value is given as “induced an inward current”. Also, the “IPSCs of vLS neurons” value in the assay with CRHR1 [5] (15 min, vLS neurons in posterior LS slices) is recorded as “had no effect”. Further, in the assay on CRHR1 [5] (setting [6]), the IPSC amplitude entry is on record as “trend toward a decrease”, the “frequency of spontaneous IPSCs” value is “decreased” and the “integrated charge of spontaneous IPSCs” value is listed as “decreased”.
